Measured values taken from ChEMBL document CHEMBL5126607, “Discovery and In Vivo Evaluation of ACT-660602: A Potent and Selective Antagonist of the Chemokine Receptor CXCR3 for Autoimmune Diseases” (J Med Chem, 2022).

What was measured:
[1] = molecular target: T1, C-X-C chemokine receptor type 3 (Homo sapiens, UniProt P49682)
T1 sequence (P49682 whole entry): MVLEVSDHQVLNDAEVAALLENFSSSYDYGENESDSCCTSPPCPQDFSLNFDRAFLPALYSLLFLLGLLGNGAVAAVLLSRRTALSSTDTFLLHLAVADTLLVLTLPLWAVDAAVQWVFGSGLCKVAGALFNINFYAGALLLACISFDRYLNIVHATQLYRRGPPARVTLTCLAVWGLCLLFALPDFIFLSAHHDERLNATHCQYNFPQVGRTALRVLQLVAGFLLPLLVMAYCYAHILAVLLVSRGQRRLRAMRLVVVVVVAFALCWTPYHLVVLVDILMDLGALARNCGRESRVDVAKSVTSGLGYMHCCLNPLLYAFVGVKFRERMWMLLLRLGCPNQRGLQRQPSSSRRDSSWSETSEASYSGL
Description: Antagonist activity at recombinant human CXCR3 expressed in human CHO-K1 cells co-expressing Galpha15 incubated for 10 mins by Fluo-4AM dye based FLIPR assay

[2] = molecular target: Voltage-gated inwardly rectifying potassium channel KCNH2 (Homo sapiens, UniProt Q12809); assay: Inhibition of hERG expressed in CHO cells by Q patch-clamp method
[3] = molecular target: T1, C-X-C chemokine receptor type 3; remark: listed apart in the source
Description: Antagonist activity at recombinant human CXCR3 in human U2SO cells assessed as reduction in CXCL10-induced beta-arrestin recruitment by TANGO assay

[4] = molecular target: T2, hERG (Homo sapiens, UniProt Q12809); assay: Inhibition of hERG expressed in CHO cells 10 uM at by Q patch-clamp method relative to control
[5] = in vitro; settings: human
[6] = molecular target: T1, C-X-C chemokine receptor type 3; remark: listed apart in the source
Description: Inhibition of CXCR3 receptor internalization in human venous whole blood incubated for 30 mins by flow cytometer analysis

[7] = Fractional unbound plasma concentration in Wistar rat at 0.5 mg/kg, iv and 2 mg/kg, po; settings: in vivo
[8] = in vivo; settings: Wistar, rat, po, 2 mg/kg
[9] = Metabolic stability in Beagle dog hepatocyte assessed as intrinsic clearance measured per 10^6 cells in presence of NADPH regenerating system by LC-MS/MS analysis; settings: hepatocytes
[10] = Half life in Wistar rat at 0.5 mg/kg, iv and 2 mg/kg, po; settings: in vivo
[11] = in vivo; settings: Wistar, rat, po, 2 mg/kg; remark: listed apart in the source
[12] = in vivo; settings: Wistar, rat, po, 2 mg/kg; remark: listed apart in the source
[13] = Metabolic stability in rat hepatocyte assessed as intrinsic clearance measured per 10^6 cells in presence of NADPH regenerating system by LC-MS/MS analysis; settings: hepatocytes
[14] = Fractional unbound plasma concentration in Beagle dog at 0.5 mg/kg, iv and 2 mg/kg, po
[15] = in vivo; settings: Wistar, rat, po, 2 mg/kg; remark: listed apart in the source
[16] = Lipophilicity, log D of the compound at pH 7.4; settings: buffer
[17] = human, microsomes, 1 µM
[18] = molecular target: T2, hERG; assay: Inhibition of hERG expressed in CHO cells 3 uM at by Q patch-clamp method relative to control; assay type: toxicity, cell-based; settings: CHO cells that express hERG
[19] = in vivo; settings: Balb/c, mouse, po, 10 mg/kg
[20] = in vivo; settings: Balb/c, mouse, po, 10 mg/kg; remark: listed apart in the source
[21] = Fractional unbound plasma concentration in Balb/c mouse at 10 mg/kg, po
[22] = in vivo; settings: Balb/c, mouse, po, 10 mg/kg; remark: listed apart in the source

Chain of Voltage-gated inwardly rectifying potassium channel KCNH2 (Q12809 whole entry): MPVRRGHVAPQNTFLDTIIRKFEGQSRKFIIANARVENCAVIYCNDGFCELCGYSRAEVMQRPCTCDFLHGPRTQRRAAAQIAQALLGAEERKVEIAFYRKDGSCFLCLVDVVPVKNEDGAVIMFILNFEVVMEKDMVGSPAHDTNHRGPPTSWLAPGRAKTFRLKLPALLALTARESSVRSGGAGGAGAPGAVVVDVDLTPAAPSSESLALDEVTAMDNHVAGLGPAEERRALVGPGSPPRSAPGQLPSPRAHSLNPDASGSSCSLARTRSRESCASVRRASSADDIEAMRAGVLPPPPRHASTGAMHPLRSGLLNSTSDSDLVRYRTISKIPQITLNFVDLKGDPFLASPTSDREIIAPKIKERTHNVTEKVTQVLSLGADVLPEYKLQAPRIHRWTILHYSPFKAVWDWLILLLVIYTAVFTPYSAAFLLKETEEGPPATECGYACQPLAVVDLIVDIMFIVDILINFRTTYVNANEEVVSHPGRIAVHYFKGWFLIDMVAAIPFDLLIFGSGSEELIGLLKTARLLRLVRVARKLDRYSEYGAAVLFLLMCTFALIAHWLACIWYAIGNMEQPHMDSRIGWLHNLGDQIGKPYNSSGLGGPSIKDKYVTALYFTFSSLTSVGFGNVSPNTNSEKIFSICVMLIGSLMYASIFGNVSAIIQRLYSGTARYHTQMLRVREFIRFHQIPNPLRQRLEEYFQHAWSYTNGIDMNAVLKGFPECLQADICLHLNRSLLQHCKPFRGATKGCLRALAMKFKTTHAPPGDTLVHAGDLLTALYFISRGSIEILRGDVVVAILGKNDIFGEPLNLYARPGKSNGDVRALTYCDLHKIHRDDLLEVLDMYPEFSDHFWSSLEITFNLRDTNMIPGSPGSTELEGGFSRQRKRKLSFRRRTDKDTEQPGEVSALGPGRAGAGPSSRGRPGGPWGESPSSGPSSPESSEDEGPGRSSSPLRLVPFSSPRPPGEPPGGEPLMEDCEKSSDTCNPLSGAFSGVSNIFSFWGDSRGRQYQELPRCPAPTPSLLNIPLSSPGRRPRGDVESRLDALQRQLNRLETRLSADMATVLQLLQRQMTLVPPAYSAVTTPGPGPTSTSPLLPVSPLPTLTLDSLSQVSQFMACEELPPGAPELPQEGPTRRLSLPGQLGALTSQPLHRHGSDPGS
T2 sequence (Q12809 whole entry): as above

Row | IC50 [1] [nM] | IC50 [3] [nM] | IC50 [6] [nM] | SMILES | IC50 [2] [nM] | other results
1 | 67 | 8030 |  | C[C@H]1CN(c2scnc2-c2nc3ccccc3[nH]2)CCN1C(=O)Cn1cnc2cccnc21 | 630 | 
2 |  |  |  | CCCc1ncc(-c2nc(C(F)(F)F)sc2N2CCN(C(=O)Cn3cnc4cccnc43)[C@H](C)C2)cn1 | 5900 | inhibition at 10 µM [4]: 57%
3 | 3.5 | 349 | 674 | Cc1nc(C)n(CC(=O)N2CCN(c3sc(C(F)(F)F)nc3-c3cnc(C4CC4)nc3)C[C@H]2C)n1 | 13000 | microsomal CLint at 1 µM ([5]; microsomes): < 10 µL/min/mg
4 | 9.7 | 745 | 994 | C[C@@H]1CN(c2sc(C3CC3)nc2-c2nc3ccccc3[nH]2)CCN1C(=O)Cn1cnc2cccnc21 | 380 | 
5 | 171 | > 10000 | 3380 | C[C@@H]1CN(c2sc(CO)nc2-c2nc3ccccc3[nH]2)CCN1C(=O)Cn1cnc2cccnc21 | 19000 | 
6 | 30 |  | 1440 | O=C(Cn1cnc2cccnc21)N1CCN(c2scnc2-c2nc3ccccc3[nH]2)CC1 |  | 
7 | 3.4 | 138 | 216 | Cc1nc(C)n(CC(=O)N2CCN(c3sc(C(F)(F)F)nc3-c3cnc(OC(C)C)nc3)C[C@H]2C)n1 | > 20000 | fraction unbound [7]: 0.035; Cmax [8]: 806 ng/mL; hepatocyte CLint [9]: 6.8 µL/min/1e6 cells; half-life [10]: 108 min; bioavailability [11]: 89%; microsomal CLint at 1 µM ([5]; microsomes): 16 µL/min/mg; Tmax [12]: 30 min; hepatocyte CLint [13]: 2.5 µL/min/1e6 cells; fraction unbound [14]: 0.192; AUC [15]: 3980 ng·h/mL
8 | 50 | 2360 | 1150 | C[C@@H]1CN(c2sc(CN(C)C)nc2-c2nc3ccccc3[nH]2)CCN1C(=O)Cn1cnc2cccnc21 | 20000 | inhibition at 10 µM [4]: 28%; microsomal CLint at 1 µM ([5]; microsomes): 44 µL/min/mg
9 | 9 | 1050 | 1060 | Cc1nc(-c2nc3ccccc3[nH]2)c(N2CCN(C(=O)Cn3cnc4cccnc43)[C@H](C)C2)s1 | 2600 | microsomal CLint at 1 µM ([5]; microsomes): 23 µL/min/mg
10 | 4.3 |  | 230 | O=C(Cn1cnc2cccnc21)N1CCN(c2ccccc2-c2nc3ccccc3[nH]2)CC1 |  | 
11 | 53 | 6220 | 1150 | C[C@@H]1CN(c2sc(C3COC3)nc2-c2nc3ccccc3[nH]2)CCN1C(=O)Cn1cnc2cccnc21 | 4400 | microsomal CLint at 1 µM ([5]; microsomes): 38 µL/min/mg
12 |  |  |  | Cc1nc(C)n(CC(=O)N2CCN(c3sc(C(F)(F)F)nc3-c3cnc(C(C)(C)C)nc3)C[C@H]2C)n1 | > 20000 | 
13 |  |  |  | CCOc1ncc(-c2nc(C(F)(F)F)sc2N2CCN(C(=O)Cn3cnc4ccccc43)[C@H](C)C2)cn1 | 4700 | 
14 | 4.2 |  |  | O=C(Nc1cccnc1N1CCN(C(=O)Cn2cnc3cccnc32)CC1)c1cccc(Cl)c1 |  | 
15 |  |  |  | CCOc1ncc(-c2nc(C(F)(F)F)sc2N2CCN(C(=O)Cn3ccc4cnccc43)[C@H](C)C2)cn1 | 570 | 
16 | 4.4 | 258 | 367 | CCCc1ncc(-c2nc(C(F)(F)F)sc2N2CCN(C(=O)Cn3nc(C)nc3C)[C@H](C)C2)cn1 | > 20000 | microsomal CLint at 1 µM ([5]; microsomes): 80 µL/min/mg
17 | 2.3 | 87 | 60 | CCOc1ncc(-c2nc(C(F)(F)F)sc2N2CCN(C(=O)Cn3nc(C)cc3C)[C@H](C)C2)cn1 | 13000 | logD [16]: 3.7; microsomal CLint at 1 µM ([5]; microsomes): 184 µL/min/mg
18 | 6.7 | 140 | 381 | C[C@@H]1CN(c2sc(C(F)(F)F)nc2-c2cnc(OCCN(C)C)nc2)CCN1C(=O)Cn1cnc2cccnc21 | > 20000 | inhibition at 10 µM [4]: 25%; CLH [17]: 1.74 mL/h/kg
19 |  |  |  | Cc1ncc(-c2nc(C(F)(F)F)sc2N2CCN(C(=O)Cn3nc(C)nc3C)[C@H](C)C2)cn1 | > 20000 | 
20 |  |  |  | COc1ccc(-c2nc(C(F)(F)F)sc2N2CCN(C(=O)Cn3nc(C)nc3C)[C@H](C)C2)cn1 | > 20000 | 
21 | 3.5 | 523 | 352 | Cc1nc(C)n(CC(=O)N2CCN(c3sc(C(F)(F)F)nc3-c3cnc(N4CCCC4)nc3)C[C@H]2C)n1 | > 20000 | 
22 |  |  |  | COc1ncc(-c2nc(C(F)(F)F)sc2N2CCN(C(=O)Cn3nc(C)nc3C)[C@H](C)C2)cn1 | > 20000 | 

Row | IC50 [1] [nM] | IC50 [3] [nM] | IC50 [6] [nM] | SMILES | IC50 [2] [nM] | other results
23 | 4 | 78 | 306 | Cc1nc(C)n(CC(=O)N2CCN(c3sc(C(F)(F)F)nc3-c3cnc(OC4CCC4)nc3)C[C@H]2C)n1 | > 20000 | logD [16]: 3.6; microsomal CLint at 1 µM ([5]; microsomes): 51 µL/min/mg
24 | 2.8 | 126 | 526 | C[C@@H]1CN(c2sc(Br)nc2-c2nc3ccccc3[nH]2)CCN1C(=O)Cn1cnc2cccnc21 | 340 | 
25 |  |  |  | COCCOc1ncc(-c2nc(C(F)(F)F)sc2N2CCN(C(=O)Cn3cnc4cccnc43)[C@H](C)C2)cn1 | > 20000 | inhibition at 10 µM [4]: 17%
26 | 3.8 | 177 | 158 | COc1ncc(-c2nc(C(F)(F)F)sc2N2CCN(C(=O)Cn3cnc4cccnc43)[C@H](C)C2)cn1 | > 20000 | inhibition at 10 µM [4]: 19%; CLH [17]: 0.84 mL/h/kg
27 |  |  |  | CCc1ncc(-c2nc(C(F)(F)F)sc2N2CCN(C(=O)Cn3nc(C)nc3C)[C@H](C)C2)cn1 | > 20000 | 
28 |  |  |  | CCOc1ncc(-c2nc(C(F)(F)F)sc2N2CCN(C(=O)Cn3ncc4cccnc43)[C@H](C)C2)cn1 | 15000 | 
29 |  |  |  | CCOc1ncc(-c2nc(C(F)(F)F)sc2N2CCN(C(=O)Cn3cc(Cl)cn3)[C@H](C)C2)cn1 | 2800 | 
30 | 2 | 162 | 289 | CCOc1ncc(-c2nc(C(F)(F)F)sc2N2CCN(C(=O)Cn3nccc3C)[C@H](C)C2)cn1 | 5600 | microsomal CLint at 1 µM ([5]; microsomes): 65 µL/min/mg
31 |  |  |  | CCc1nc(-c2nc3ccccc3[nH]2)c(N2CCN(C(=O)Cn3cnc4cccnc43)[C@H](C)C2)s1 |  | microsomal CLint at 1 µM ([5]; liver microsomes): 88 µL/min/mg
32 | 3.8 | 93 | 90 | CCOc1ncc(-c2nc(C(F)(F)F)sc2N2CCN(C(=O)Cn3ccc(C(F)(F)F)n3)[C@H](C)C2)cn1 | 5100 | microsomal CLint at 1 µM ([5]; microsomes): 20 µL/min/mg
33 | 3.9 | 604 |  | CC[C@@H]1CN(c2scnc2-c2nc3ccccc3[nH]2)CCN1C(=O)Cn1cnc2cccnc21 | 750 | 
34 | 4.2 | 608 | 860 | Cc1nc(C)n(CC(=O)N2CCN(c3sc(C(F)(F)F)nc3-c3ccc(C(F)(F)F)nc3)C[C@H]2C)n1 | 5200 | microsomal CLint at 1 µM ([5]; microsomes): < 10 µL/min/mg
35 |  |  |  | CCOc1ncc(-c2nc(C(F)(F)F)sc2N2CCN(C(=O)CN3C(=O)Cc4ccccc43)[C@H](C)C2)cn1 | 3000 | 
36 | 3.3 | 99 | 536 | CCOc1ncc(-c2nc(C(F)(F)F)sc2N2CCN(C(=O)Cn3c(=O)oc4ccccc43)[C@H](C)C2)cn1 | 2200 | 
37 | 4200 |  |  | O=C(Cn1cnc2cccnc21)N1CCN(c2ncsc2-c2nc3ccccc3[nH]2)CC1 |  | 
38 |  |  |  | CCOc1ncc(-c2nc(C(F)(F)F)sc2N2CCN(C(=O)Cn3ccc4cccnc43)[C@H](C)C2)cn1 | 4200 | 
39 | 8.8 | 505 | 887 | CCOc1ccc(-c2nc(C(F)(F)F)sc2N2CCN(C(=O)Cn3nc(C)nc3C)[C@H](C)C2)cn1 | > 20000 | microsomal CLint at 1 µM ([5]; microsomes): 66 µL/min/mg
40 |  |  |  | Cc1ncc(-c2nc(C(F)(F)F)sc2N2CCN(C(=O)Cn3cnc4cccnc43)[C@H](C)C2)cn1 | 15000 | inhibition at 10 µM [4]: 40%
41 |  |  |  | COc1ccc(-c2nc(C(F)(F)F)sc2N2CCN(C(=O)Cn3cnc4cccnc43)[C@H](C)C2)cc1 | 8800 | inhibition at 10 µM [4]: 53%
42 | 1.6 |  |  | O=C(Nc1ccccc1N1CCN(C(=O)Cn2cnc3cccnc32)CC1)c1cccc(Cl)c1 |  | 
43 |  |  |  | CCOc1ncc(-c2nc(C(F)(F)F)sc2N2CCN(C(=O)Cn3cnc(C(F)(F)F)n3)[C@H](C)C2)cn1 | > 6000 | inhibition at 3 µM [18]: 31%
44 | 2 | 20 | 48 | CCOc1ncc(-c2nc(C(F)(F)F)sc2N2CCN(C(=O)Cn3cnc4cccnc43)[C@H](C)C2)cn1 | 13000 | inhibition at 10 µM [4]: 44%; CLH [17]: 4.5 mL/h/kg; AUC [19]: 1590 ng·h/mL; Tmax [20]: 30 min; fraction unbound [21]: 0.008; Cmax [22]: 1800 ng/mL
